From patent US11142515B2, “Pyrazolyl-ureas as kinase inhibitors” (RESPIVERT LIMITED, priority 2014, dated 2021)

Assays:
Syk = target: T1, Syk (Homo sapiens, UniProt P43405); assay: Syk enzyme inhibition (Z-LYTE FRET); assay type: biochemical
T1 construct: purchased Life Technologies
Description: (§1) The enzyme inhibitory activities of compounds disclosed herein were determined by FRET using synthetic peptides labelled with both donor and acceptor fluorophores (Z-LYTE, Life Technologies, Paisley, UK).
The relevant enzyme (1000 ng/mL, 1400 ng/mL or 2000 ng/mL respectively, 2.5 μL) was incubated with the test compound (either 40 μg/mL, 12 μg/mL, 4 μg/mL, 1.2 μg/mL, 0.4 μg/mL, 0.12 μg/mL, 0.04 μg/mL, 0.012 μg/mL, 0.004 μg/mL or 0.0012 μg/mL, 2.5 μL each) for 2 h at RT. The FRET peptides (8 μM, 2.5 μL), and appropriate ATP solutions (2.5 μL, 800 μM for c-Src, and 60 μM ATP for HCK and Syk) were then added to the enzyme/compound mixtures and incubated for 1 h at RT. Development reagent (protease, 5 μL) was added for 1 h prior to detection in a fluorescence microplate reader (EnVision, Perkin Elmer).
(§2) In all cases, the site-specific protease cleaves non-phosphorylated peptide only and eliminates the FRET signal. Phosphorylation levels of each reaction were calculated using the ratio of coumarin emission (donor) over fluorescein emission (acceptor), for which low ratios indicate high phosphorylation and high ratios indicate low phosphorylation levels.

[1] = system: HRV (RV16)-induced IL-8 release in BEAS2B cells; assay: Rhinovirus-induced IL-8 release in BEAS2B cells; assay type: cell-based, human
Description: Human rhinovirus RV16 is obtained from the American Type Culture Collection (Manassas, Va.). Viral stocks are generated by infecting MRC5 cells with HRV until 80% of the cells were cytopathic.
BEAS2B cells are infected with HRV at an MOI of 1.2 and incubated for 1 h at 33° C. with gentle shaking to promote absorption. The cells are then washed with PBS, fresh media added and the cells are incubated for a further 72 h. The supernatant is collected for assay of IL-8 concentrations using a Duoset ELISA development kit (R&D systems, Minneapolis, Minn.). Compounds are added 2 h before HRV infection and 1 h after infection when non-infected HRV is washed out.

[2] = system: sputum macrophages from COPD patients; assay: Cytokine production in LPS-treated sputum macrophages from COPD patients; assay type: cell-based, human
Description: Patients with COPD inhaled a nebulised solution of 3% (w/v) hypertonic saline using an ultrasonic nebuliser (Devilbiss, Carthage, Mo.) with tidal breathing for 5 min. This procedure was repeated a maximum of three times until enough sputum was obtained. The sputum samples were homogenized and mixed vigorously using a vortex mixer in 0.02% v/v dithiothreitol (DTT) solution. The samples were re-suspended in PBS (40 mL) followed by centrifugation at 1500 rpm at 4° C. for 10 min to obtain sputum cell pellets. The pellets were washed with PBS (40 mL). The sputum cells were then re-suspended in 4 mL macrophage serum-free medium (macrophage-SFM, Life technologies, containing 20 U/mL penicillin, 0.02 mg/mL streptomycin and 5 μg/mL amphotericin B) and seeded on high bound 96-well plate, followed by incubation for 1 h at 37° C. and at 5% CO2 to allow the macrophages to attach to the bottom of the plate. The cells on the plate were washed with fresh macrophage-SFM (200 μL/well) to remove neutrophils and other contaminated cells. The adherent cells (mainly sputum macrophages) on the plate were used for further analysis. Sputum inductions were conducted in Quintiles Drug Research Unit at Guys Hospital and ethics approval and written informed consent was obtained by Quintiles.
Where appropriate, 1 μL of a solution containing either the test compound or reference article at the stated concentrations (either 0.1 μg/mL, 0.01 μg/mL, or 0.001 μg/mL) or alternatively 1 μL of DMSO as the vehicle control was added to each well (200 μL in media) and the cells were incubated for 2 h. The cells were stimulated with LPS solution (50 μL, final concentration: 1 μg/mL) and incubated for 18 h at 37° C. and 5% CO2. The supernatant was then collected and kept at −80° C. Suitable luminex kits were used to measure the selected analytes. After thawing the supernatant, the magnetic antibody beads were multiplexed and incubated in a 96-well plate with standard, background solution or the appropriate volume of sample overnight with shaking at 4° C. After washing twice with 200 μL of wash buffer provided by the kit per well using a magnetic plate washer, the beads were incubated for 1 h at RT with the biotin conjugated antibody solution provided by the kit with shaking. Streptavidin solution was added for 30 min with shaking at RT. After washing with 200 μL wash buffer per well, the beads were resuspended in sheath fluid (150 μL) and analyzed immediately. The level of each analyte in the supernatant was calculated using Xcel Fit software with a 4 or 5-parameter equation using each standard curve. The inhibitions of each cytokine production were calculated at each concentration by comparison with vehicle control.

PBMCs (mitosis) = assay: Cell mitosis assay in PHA-treated PBMCs; assay type: cell-based, human
Description: Peripheral blood mononucleocytes (PBMCs) from healthy subjects were separated from whole blood (Quintiles, London, UK) using a density gradient (Histopaquee-1077, Sigma-Aldrich, Poole, UK). The PBMCs (3 million cells per sample) were subsequently treated with 2% PHA (Sigma-Aldrich, Poole, UK) for 48 h, followed by a 20 h exposure to varying concentrations of test compounds. At 2 h before collection, PBMCs were treated with demecolcine (0.1 μg/mL; Life Technologies, Paisley, UK,) to arrest cells in metaphase.

d-U937 cells = assay: Cell viability: MTT assay in differentiated U937 cells; assay type: cell-based, human; details: 10 μg/mL
Description: Differentiated U937 cells were pre-incubated with each test compound (final concentration 10 μg/mL in 200 μL media indicated below) under two protocols: the first for 4 h in 5% FCS RPMI1640 media and the second in 10% FCS RPMI1640 media for 24 h. The supernatant was replaced with new media (200 μL) and MTT stock solution (10 μL, 5 mg/mL) was added to each well. After incubation for 1 h the media were removed, DMSO (200 μL) was added to each well and the plates were shaken lightly for 1 h prior to reading the absorbance at 550 nm. The percentage loss of cell viability was calculated for each well relative to vehicle (0.5% DMSO) treatment. Consequently an apparent increase in cell viability for drug treatment relative to vehicle is tabulated as a negative percentage.

GSK 3α enzyme isoform = target: T2, GSK 3α enzyme isoform (Homo sapiens, UniProt P49840); assay: GSK 3α enzyme inhibition (Z-LYTE FRET); assay type: biochemical
T2 construct: purchased Life Technologies
Description: as §1
The GSK3a protein (500 ng/mL, 2.5 μL) was incubated with the test compound (2.5 μL at either 40 μg/mL, 12 μg/mL, 4 μg/mL, 1.2 μg/mL, 0.4 μg/mL, 0.12 μg/mL, 0.04 μg/mL, 0.012 μg/mL, 0.004 μg/mL or 0.0012 μg/mL) for 2 h at RT. The FRET peptide (8 μM, 2.5 μL), which is a phosphorylation target for GSK3α, and ATP (40 μM, 2.5 μL) was then added to the enzyme/compound mixture and the resulting mixture incubated for 1 h at RT. Development reagent (protease, 5 μL) was added for 1 h prior to detection in a fluorescence microplate reader (EnVision, Perkin Elmer).
as §2

[3] = system: neutrophil accumulation in BALF; assay: LPS-induced neutrophil accumulation in mice; assay type: in vivo, Balb/c mice; details: 1.75 μg/mouse
Description: Non-fasted Balb/c mice were […] by the intra tracheal route with either vehicle, or the test substance at the indicated times (within the range 2-8 h) before stimulation of the inflammatory response by application of an LPS challenge. At T=0, mice were placed into an exposure chamber and exposed to LPS (7.0 mL, 0.5 mg/mL solution in PBS for 30 min). After a further 8 h the animals were anesthetized, their tracheas cannulated and BALF extracted by infusing and then withdrawing from their lungs 1.0 mL of PBS via the tracheal catheter. Total and differential white cell counts in the BALF samples were measured using a Neubaur haemocytometer. Cytospin smears of the BALF samples were prepared by centrifugation at 200 rpm for 5 min at RT and stained using a DiffQuik stain system (Dade Behring). Cells were counted using oil immersion microscopy. Data for neutrophil numbers in BAL are shown as mean±S.E.M. (standard error of the mean). The percentage inhibition of neutrophil accumulation was calculated for each treatment relative to vehicle treatment.

[4] = system: alveolar macrophages and neutrophils in BALF; assay: Cigarette smoke model: macrophages and neutrophils in BALF; assay type: in vivo, A/J mice; details: 1.75 μg/mouse (35 μL, bid, i.n.)
Description: A/J mice (males, 5 weeks old) were exposed to cigarette smoke (4% cigarette smoke, diluted with air) for 30 min/day for 11 days using a Tobacco Smoke Inhalation Experiment System for small animals (Model SIS-CS; Sibata Scientific Technology, Tokyo, Japan). […] At 12 h after the last […], each of the animals was anesthetized, the trachea cannulated and bronchoalveolar lavage fluid (BALF) was collected. The numbers of alveolar macrophages and neutrophils were determined by FACS analysis (EPICS® ALTRA II, Beckman Coulter, Inc., Fullerton, Calif., USA) using anti-mouse MOMA2 antibody (macrophage) or anti-mouse 7/4 antibody (neutrophil). BALF was centrifuged and the supernatant was collected. The level of keratinocyte chemoattractant (KC; CXCL1) in BALF was quantitated using a Quantikine® mouse KC ELISA kit (R&D systems, Inc., Minneapolis, Minn., USA).

T2 sequence (P49840 whole entry, canonical isoform): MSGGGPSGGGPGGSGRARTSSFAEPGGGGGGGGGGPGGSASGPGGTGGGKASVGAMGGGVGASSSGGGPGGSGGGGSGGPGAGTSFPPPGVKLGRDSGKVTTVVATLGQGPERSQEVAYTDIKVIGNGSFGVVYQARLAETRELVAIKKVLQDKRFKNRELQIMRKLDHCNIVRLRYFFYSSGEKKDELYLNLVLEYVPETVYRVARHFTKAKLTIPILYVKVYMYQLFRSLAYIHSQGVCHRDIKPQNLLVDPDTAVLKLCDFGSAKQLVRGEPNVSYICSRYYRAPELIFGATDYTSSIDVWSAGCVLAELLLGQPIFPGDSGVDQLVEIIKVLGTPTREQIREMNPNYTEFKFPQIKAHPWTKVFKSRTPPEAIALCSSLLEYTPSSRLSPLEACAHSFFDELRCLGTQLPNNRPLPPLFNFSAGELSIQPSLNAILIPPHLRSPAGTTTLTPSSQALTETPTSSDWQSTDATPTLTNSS

Row | Structure (SMILES) | inhibitory activity against Syk (in words) (Syk) | inhibition of HRV-induced IL-8 (FIG. 1) [1] | inhibition of pro-inflammatory cytokine production in sputum macrophage compared with fluticasone propionate [2] | impact on cell division (mitosis) compared with Reference Compound (PBMCs (mitosis)) | MTT Assay Cell viability at time point indicated in d-U937 Cells, 4 h (d-U937 cells; 4 h) | MTT Assay Cell viability at time point indicated in d-U937 Cells, 24 h (d-U937 cells; 24 h) | inhibitory activity against GSK3a (in words) (GSK 3α enzyme isoform) | inhibition of LPS-induced neutrophil accumulation [3] [%] | inhibition at 0.1 µg/mL ([2]; Homo sapiens, Macrophage, read-out: E-max (maximum inhibition), IL-6 production in LPS-treated sputum macrophages) [%] | neutrophil or macrophage accumulation into airways (cigarette smoke model) [4]
1 | CCc1cncc(Nc2cc(COc3ccc(NC(=O)Nc4cc(C(C)(C)C)nn4-c4ccc(C)cc4)c4ccccc34)ccn2)n1 [Example 2, 1-(3-(tert-Butyl)-1-(p-tolyl)-1H-pyrazol-5-yl)-3-(4-((2-((6-ethylpyrazin-2-yl)amino)pyridin-4-yl)methoxy)naphthalen-1-yl)urea] | very much weaker than the Reference Compound | dose-dependent inhibition | higher efficacy | markedly less activity | − (−ve and +ve indicate the value is below and above, respectively, the no significant effect threshold defined as 30% inhibition at 10 μg/mL at the time point indicated) | − (−ve and +ve indicate the value is below and above, respectively, the no significant effect threshold defined as 30% inhibition at 10 μg/mL at the time point indicated) | very much weaker than the Reference Compound |  |  | 
2 | CCC(=O)O[C@]1(C(=O)SCF)[C@H](C)C[C@H]2[C@@H]3C[C@H](F)C4=CC(=O)C=C[C@]4(C)[C@@]3(F)[C@@H](O)C[C@@]21C [Fluticasone propionate, fluticasone propionate, reference compound] |  |  |  |  |  |  |  | > 80 | 42 | did not inhibit
